Usually Ki stands for a measure of affinity in units of concentration, obtained from inhibition or displacement.

Some results are limits rather than exact numbers.

Ki data for 13 compounds are collected here from publication PMC12183592, “Discovery of Iboga-Derived Ligands for the Sigma‑2 Receptor” (ACS Bio & Med Chem Au, 2025).

In one test the target is MOR (Homo sapiens, UniProt P35372). Description: PDSP secondary radioligand displacement assay, Ki. It is filed as binding. The following applies: supplement xlsx. A general note: Displacement assays read how much labelled ligand stays bound in the presence of the test substance.
Another test concerns the target T1, Alpha2A (Homo sapiens, UniProt P08913).
T1 sequence (P08913 1-465): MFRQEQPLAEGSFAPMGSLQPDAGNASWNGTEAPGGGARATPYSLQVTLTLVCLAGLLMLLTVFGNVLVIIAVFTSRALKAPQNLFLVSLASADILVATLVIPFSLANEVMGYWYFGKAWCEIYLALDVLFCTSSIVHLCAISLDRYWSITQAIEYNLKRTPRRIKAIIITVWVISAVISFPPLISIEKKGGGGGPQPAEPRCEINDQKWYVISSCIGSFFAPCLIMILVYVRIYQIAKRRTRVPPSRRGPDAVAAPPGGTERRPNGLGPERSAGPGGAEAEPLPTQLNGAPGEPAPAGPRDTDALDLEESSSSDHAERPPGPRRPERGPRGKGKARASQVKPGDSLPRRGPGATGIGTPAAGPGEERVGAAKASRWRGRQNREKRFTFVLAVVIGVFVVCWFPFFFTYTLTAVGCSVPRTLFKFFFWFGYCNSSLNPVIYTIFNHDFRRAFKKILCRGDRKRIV
Description: PDSP secondary radioligand displacement assay, Ki. It is filed as binding. From the text: (§1) Thirteen analogs, in addition to ibogamine itself (Figure ), were submitted to the PDSP for biological evaluation. Primary radioligand displacement assays were run on 44 neurotransmitter receptors and transporters to give a snapshot of the receptor affinity for each ligand.

The next test concerns the target T2, Alpha2B (Homo sapiens, UniProt P18089).
T2 sequence (P18089 1-450): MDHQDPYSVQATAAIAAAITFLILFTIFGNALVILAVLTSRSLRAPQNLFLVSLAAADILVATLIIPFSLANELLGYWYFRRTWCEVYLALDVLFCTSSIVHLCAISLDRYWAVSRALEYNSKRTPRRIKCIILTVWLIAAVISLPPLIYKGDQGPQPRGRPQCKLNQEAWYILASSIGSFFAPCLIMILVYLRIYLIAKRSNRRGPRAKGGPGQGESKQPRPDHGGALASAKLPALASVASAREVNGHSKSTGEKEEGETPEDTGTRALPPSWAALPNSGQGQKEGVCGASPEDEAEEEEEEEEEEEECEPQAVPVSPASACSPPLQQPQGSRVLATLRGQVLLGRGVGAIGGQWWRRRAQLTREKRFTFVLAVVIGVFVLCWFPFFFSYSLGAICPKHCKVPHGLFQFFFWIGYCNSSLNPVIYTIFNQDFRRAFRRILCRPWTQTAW
Description: PDSP secondary radioligand displacement assay, Ki. It is filed as binding. The settings on record: supplement xlsx.
From the text: as §1

For the next test, the target named is 5-HT2A (Homo sapiens, UniProt P28223). Briefly: PDSP secondary radioligand displacement assay, Ki. The settings on record: supplement xlsx. It is filed as binding.
From the text: as §1

The target of a further test is T3, Alpha2C (Homo sapiens, UniProt P18825).
T3 sequence (P18825 1-462): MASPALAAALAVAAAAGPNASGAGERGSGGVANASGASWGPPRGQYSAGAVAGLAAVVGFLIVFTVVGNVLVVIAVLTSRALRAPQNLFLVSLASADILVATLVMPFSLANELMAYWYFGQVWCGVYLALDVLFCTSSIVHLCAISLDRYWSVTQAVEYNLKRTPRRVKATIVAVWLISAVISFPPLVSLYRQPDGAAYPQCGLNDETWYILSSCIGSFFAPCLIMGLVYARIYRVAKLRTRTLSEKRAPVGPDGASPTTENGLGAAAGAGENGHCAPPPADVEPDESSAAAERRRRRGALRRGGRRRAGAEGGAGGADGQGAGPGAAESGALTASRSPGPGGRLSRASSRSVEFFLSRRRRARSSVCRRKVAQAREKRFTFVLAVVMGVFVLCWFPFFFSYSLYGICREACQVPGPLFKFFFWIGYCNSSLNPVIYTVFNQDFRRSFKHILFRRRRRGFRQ
Description: PDSP secondary radioligand displacement assay, Ki. It is filed as binding. The settings on record: Ki values (nM) Alpha2C, supplement xlsx and text.
From the text: as §1

The next test addresses M1 (Homo sapiens, UniProt P11229). Description: PDSP secondary radioligand displacement assay, Ki. It is filed as binding.
From the text: as §1

The target in a further test is M3 (Homo sapiens, UniProt P20309). Briefly: PDSP secondary radioligand displacement assay, Ki. It is filed as binding.
From the text: as §1

The target in the next test is H4 (Homo sapiens, UniProt Q9H3N8). Briefly: PDSP secondary radioligand displacement assay, Ki. The settings on record: supplement xlsx. It is filed as binding.
From the text: as §1

The next test deals with SERT (Homo sapiens, UniProt P31645). Description: PDSP secondary radioligand displacement assay, Ki. It is filed as binding. The following applies: supplement xlsx.
From the text: as §1

In another test the target is KOR (Homo sapiens, UniProt P41145). Briefly: PDSP secondary radioligand displacement assay, Ki. It is filed as binding. The following applies: supplement xlsx.
From the text: as §1

The target of another test is H3 (Homo sapiens, UniProt Q9Y5N1). Briefly: PDSP secondary radioligand displacement assay, Ki. It is filed as binding.
From the text: as §1

The next test has as its target S2R. The arrangement: method as in earlier work. The following applies: ref 30 (Bowen et al., 1995); read-out: affinity at S2R (Ki); cited from earlier work.
The target of another test is 5-HT1D (Homo sapiens, UniProt P28221). Briefly: PDSP secondary radioligand displacement assay, Ki. It is filed as binding. The following applies: supplement xlsx.
From the text: as §1

Another test concerns the target 5-HT3 (Homo sapiens, UniProt P46098). Description: PDSP secondary radioligand displacement assay, Ki. It is filed as binding. The settings on record: supplement xlsx.
From the text: as §1

A further test concerns the target NET (Homo sapiens, UniProt P23975). Description: PDSP secondary radioligand displacement assay, Ki. It is filed as binding.
From the text: as §1

The target of the next test is T4, M2 (Homo sapiens, UniProt P08172).
T4 sequence (P08172 1-466): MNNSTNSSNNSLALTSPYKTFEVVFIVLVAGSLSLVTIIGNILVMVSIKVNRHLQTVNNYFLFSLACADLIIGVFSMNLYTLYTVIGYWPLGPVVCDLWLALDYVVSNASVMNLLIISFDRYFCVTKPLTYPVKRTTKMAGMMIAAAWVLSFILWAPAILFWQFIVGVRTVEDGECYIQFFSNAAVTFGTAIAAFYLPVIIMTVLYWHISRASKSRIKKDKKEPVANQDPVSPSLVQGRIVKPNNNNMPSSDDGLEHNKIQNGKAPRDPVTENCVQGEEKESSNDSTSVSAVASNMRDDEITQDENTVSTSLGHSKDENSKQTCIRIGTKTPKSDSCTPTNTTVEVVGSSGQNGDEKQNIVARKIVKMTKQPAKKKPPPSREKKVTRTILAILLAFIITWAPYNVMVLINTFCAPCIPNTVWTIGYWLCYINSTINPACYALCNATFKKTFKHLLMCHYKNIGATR
Description: PDSP secondary radioligand displacement assay, Ki. It is filed as binding.
From the text: as §1

In another test the target is DAT (Homo sapiens, UniProt Q01959). Description: PDSP secondary radioligand displacement assay, Ki. It is filed as binding.
From the text: as §1

The next test deals with Alpha1B (Homo sapiens, UniProt P35368). Description: PDSP secondary radioligand displacement assay, Ki. It is filed as binding.
From the text: as §1

The next test has as its target M4 (Homo sapiens, UniProt P08173). Briefly: PDSP secondary radioligand displacement assay, Ki. It is filed as binding. The settings on record: supplement xlsx.
From the text: as §1

The next test deals with M5 (Homo sapiens, UniProt P08912). Briefly: PDSP secondary radioligand displacement assay, Ki. It is filed as binding.
From the text: as §1

The target of the next test is D3 (Homo sapiens, UniProt P35462). Briefly: PDSP secondary radioligand displacement assay, Ki. It is filed as binding.
From the text: as §1

The next test deals with D2 (Homo sapiens, UniProt P14416). Briefly: PDSP secondary radioligand displacement assay, Ki. It is filed as binding.
From the text: as §1

The target of the next test is H1 (Homo sapiens, UniProt P35367). Description: PDSP secondary radioligand displacement assay, Ki. It is filed as binding.
From the text: as §1

Chain of M3 (P20309 whole entry): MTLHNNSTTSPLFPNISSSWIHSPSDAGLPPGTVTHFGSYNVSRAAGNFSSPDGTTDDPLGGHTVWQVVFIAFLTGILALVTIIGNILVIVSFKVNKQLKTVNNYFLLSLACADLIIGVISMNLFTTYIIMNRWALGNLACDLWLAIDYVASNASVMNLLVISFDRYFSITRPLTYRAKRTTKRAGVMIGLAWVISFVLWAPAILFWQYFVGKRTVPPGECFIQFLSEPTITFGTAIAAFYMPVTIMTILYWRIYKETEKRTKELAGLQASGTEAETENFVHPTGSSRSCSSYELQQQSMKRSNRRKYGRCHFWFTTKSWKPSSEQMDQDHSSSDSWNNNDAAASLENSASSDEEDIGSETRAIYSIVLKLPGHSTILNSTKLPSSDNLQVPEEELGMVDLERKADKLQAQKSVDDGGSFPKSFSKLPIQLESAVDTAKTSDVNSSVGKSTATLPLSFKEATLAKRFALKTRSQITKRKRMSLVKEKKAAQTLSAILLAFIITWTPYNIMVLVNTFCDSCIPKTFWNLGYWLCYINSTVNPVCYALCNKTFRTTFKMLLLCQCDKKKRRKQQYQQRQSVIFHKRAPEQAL
Chain of KOR (P41145 whole entry): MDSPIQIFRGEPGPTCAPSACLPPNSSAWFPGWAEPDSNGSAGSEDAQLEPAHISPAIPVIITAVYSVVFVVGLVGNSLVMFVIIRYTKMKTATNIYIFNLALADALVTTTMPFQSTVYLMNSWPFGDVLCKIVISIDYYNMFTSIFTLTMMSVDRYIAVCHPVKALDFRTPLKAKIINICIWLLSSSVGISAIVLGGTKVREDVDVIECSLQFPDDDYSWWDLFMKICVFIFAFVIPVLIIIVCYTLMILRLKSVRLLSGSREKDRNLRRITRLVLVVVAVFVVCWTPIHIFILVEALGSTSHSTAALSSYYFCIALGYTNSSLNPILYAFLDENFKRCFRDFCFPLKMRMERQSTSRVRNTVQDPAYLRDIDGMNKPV
Chain of 5-HT1D (P28221 whole entry, species assumed): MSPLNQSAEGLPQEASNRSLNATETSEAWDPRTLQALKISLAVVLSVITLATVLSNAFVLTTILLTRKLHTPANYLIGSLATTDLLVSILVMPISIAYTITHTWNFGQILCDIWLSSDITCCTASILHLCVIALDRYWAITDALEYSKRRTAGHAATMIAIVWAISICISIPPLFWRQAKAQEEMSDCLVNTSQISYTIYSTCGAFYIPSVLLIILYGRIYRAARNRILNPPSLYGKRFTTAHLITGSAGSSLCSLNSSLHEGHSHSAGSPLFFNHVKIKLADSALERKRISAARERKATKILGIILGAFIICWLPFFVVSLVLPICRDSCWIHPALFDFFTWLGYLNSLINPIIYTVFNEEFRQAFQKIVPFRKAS
Chain of NET (P23975 whole entry): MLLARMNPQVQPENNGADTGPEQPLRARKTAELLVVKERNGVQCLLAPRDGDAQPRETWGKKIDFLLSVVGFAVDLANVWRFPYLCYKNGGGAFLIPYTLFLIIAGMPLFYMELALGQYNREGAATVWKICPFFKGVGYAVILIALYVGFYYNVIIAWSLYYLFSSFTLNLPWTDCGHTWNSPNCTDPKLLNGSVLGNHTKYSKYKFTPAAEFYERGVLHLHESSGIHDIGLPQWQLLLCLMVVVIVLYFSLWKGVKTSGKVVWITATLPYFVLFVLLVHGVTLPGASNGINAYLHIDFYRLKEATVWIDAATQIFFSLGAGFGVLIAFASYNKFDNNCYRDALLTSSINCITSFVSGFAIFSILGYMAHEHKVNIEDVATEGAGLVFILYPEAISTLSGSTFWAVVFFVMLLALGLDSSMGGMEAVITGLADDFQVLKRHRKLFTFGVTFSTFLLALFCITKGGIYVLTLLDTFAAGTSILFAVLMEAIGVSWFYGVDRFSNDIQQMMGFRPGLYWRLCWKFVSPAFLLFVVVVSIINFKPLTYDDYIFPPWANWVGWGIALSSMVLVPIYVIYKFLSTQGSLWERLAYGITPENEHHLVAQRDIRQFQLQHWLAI
Chain of MOR (P35372 whole entry): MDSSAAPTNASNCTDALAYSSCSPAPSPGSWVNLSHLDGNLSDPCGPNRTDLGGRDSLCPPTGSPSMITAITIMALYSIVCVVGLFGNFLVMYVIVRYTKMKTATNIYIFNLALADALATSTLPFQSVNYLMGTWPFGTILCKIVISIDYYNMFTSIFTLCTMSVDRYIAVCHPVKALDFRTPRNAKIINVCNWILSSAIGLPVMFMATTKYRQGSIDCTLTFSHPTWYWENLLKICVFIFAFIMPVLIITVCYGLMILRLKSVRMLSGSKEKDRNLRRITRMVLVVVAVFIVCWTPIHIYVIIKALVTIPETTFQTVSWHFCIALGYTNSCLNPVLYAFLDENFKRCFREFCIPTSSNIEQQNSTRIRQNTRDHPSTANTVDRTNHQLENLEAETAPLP
Chain of H3 (Q9Y5N1 whole entry): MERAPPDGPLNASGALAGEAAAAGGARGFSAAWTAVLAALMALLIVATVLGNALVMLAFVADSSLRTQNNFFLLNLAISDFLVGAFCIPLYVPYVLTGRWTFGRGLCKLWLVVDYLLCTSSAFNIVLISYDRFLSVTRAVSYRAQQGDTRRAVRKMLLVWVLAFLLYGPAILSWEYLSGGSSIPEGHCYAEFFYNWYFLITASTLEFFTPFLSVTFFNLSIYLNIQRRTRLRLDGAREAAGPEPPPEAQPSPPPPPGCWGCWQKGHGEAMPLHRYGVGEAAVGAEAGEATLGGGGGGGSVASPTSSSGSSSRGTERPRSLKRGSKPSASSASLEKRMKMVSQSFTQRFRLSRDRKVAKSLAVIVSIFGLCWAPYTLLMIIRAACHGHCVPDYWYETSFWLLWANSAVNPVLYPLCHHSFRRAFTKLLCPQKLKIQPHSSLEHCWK
Chain of DAT (Q01959 whole entry, species assumed): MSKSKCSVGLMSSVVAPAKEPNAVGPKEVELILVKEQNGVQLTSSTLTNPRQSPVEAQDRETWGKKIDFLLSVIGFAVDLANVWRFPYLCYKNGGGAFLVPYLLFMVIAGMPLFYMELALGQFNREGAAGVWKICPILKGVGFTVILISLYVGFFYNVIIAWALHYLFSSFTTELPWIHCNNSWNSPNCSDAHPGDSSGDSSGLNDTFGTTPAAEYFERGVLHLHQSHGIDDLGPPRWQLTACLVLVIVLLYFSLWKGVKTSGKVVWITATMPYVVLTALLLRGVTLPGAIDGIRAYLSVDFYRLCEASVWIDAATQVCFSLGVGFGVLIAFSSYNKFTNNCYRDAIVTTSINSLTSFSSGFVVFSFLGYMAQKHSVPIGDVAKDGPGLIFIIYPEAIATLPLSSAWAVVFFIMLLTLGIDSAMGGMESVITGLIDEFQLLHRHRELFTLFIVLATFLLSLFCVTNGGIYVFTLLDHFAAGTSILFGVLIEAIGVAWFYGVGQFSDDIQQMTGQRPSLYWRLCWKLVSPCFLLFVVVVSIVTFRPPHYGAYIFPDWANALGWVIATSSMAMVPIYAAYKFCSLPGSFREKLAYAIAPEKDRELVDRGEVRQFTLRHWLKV
Chain of SERT (P31645 whole entry, species assumed): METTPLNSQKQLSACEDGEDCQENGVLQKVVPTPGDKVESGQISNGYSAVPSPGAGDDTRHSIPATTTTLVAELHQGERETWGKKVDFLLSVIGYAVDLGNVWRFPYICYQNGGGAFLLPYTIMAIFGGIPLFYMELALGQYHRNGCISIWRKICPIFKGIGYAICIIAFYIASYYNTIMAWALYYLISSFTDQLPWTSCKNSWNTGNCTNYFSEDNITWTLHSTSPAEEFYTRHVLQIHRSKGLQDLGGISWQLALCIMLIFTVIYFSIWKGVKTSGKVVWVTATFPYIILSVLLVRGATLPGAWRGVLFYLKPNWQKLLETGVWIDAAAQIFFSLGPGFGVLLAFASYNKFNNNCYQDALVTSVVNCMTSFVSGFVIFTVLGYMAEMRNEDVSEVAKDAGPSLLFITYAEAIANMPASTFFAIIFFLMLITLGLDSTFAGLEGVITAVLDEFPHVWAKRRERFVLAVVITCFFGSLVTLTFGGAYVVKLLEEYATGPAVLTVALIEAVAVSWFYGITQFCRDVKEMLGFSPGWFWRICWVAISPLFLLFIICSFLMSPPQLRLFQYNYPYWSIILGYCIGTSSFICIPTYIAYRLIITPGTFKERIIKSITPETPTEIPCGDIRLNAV
Chain of M1 (P11229 whole entry): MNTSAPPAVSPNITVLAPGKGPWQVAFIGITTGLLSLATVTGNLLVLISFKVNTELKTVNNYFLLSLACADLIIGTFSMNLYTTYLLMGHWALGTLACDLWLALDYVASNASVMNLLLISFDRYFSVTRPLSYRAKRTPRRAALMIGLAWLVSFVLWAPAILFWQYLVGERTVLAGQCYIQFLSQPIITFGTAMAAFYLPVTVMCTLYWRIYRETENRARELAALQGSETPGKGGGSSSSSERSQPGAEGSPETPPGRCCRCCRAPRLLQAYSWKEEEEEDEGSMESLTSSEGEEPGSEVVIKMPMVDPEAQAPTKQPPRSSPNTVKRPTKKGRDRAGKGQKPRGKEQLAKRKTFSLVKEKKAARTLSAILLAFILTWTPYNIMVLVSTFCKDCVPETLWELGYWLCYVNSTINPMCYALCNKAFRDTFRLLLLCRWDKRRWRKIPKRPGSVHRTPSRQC
Chain of 5-HT3 (P46098 24-478, species assumed): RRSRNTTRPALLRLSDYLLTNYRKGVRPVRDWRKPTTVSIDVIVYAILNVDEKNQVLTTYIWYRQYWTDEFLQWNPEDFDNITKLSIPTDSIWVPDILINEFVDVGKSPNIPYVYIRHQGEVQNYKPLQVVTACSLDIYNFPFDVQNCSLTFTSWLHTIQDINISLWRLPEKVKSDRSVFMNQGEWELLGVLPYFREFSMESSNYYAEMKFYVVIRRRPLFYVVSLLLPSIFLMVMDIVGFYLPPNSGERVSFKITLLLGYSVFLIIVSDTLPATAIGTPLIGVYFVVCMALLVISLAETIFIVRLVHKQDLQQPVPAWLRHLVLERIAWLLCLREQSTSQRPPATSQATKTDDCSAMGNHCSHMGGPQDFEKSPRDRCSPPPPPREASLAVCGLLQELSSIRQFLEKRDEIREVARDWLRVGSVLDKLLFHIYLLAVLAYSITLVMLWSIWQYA

In the case of `CCC1CC2CC3c4[nH]c5cc(C(F)(F)F)ccc5c4CCN(C2)C13` (stereo not drawn) [7e], the Ki was 3810 nM at MOR; 1420 nM on Alpha2A; 1650 nM at Alpha2B; 1800 nM on 5-HT2A; 110 nM at Alpha2C; 4570 nM at M1. Moreover, the inhibition constant (Ki) worked out at 1950 nM on M3; 3030 nM at H4; 206 nM at SERT; 1500 nM on KOR; 2290 nM on H3.

Consider `C[C@H]1CC2CC3c4[nH]c5ccccc5c4CCN(C2)C31` (stereo partly drawn) [7g], for which the affinity on SERT, expressed as Ki, was 371 nM.

On to ibogaine [ibogaine (2)], for which the Ki at S2R is 201 nM.

Take `CCC1CC2CC3c4[nH]c5cc(Br)ccc5c4CCN(C2)C13` (stereo not drawn) [7c]: the Ki on MOR is 4210 nM; at Alpha2A, 1630 nM; at Alpha2B, 1620 nM; on Alpha2C, 71 nM; at M3, 1520 nM; at 5-HT1D, 7460 nM. Further, the Ki on 5-HT3 was 1400 nM; on SERT it was 162 nM; on NET, 1750 nM; at M2, 8030 nM; at KOR, 1040 nM; on DAT, 807 nM. The compound further yielded a Ki at H3 of 3320 nM.

In the case of `CC[C@H]1C[C@H]2C[C@H]3c4[nH]c5ccccc5c4CCN(C2)[C@@H]13` [ibogamine (1), ibogamine, reference compound], the Ki on S2R was 137 nM; on MOR, 2460 nM; at M3, 2460 nM; on SERT, 272 nM.

Turning to `CCC1CC2CC3c4[nH]c5cc(F)ccc5c4CCN(C2)C13` (stereo not drawn) [7a], the Ki on Alpha2A stood at 4100 nM; at Alpha2C, 623 nM; on Alpha1B, 2090 nM; at M3, 734 nM; on SERT it was 153 nM; on NET, 5700 nM. Moreover, the Ki turned out to be 2690 nM on M2, 4770 nM at KOR and 1320 nM on DAT.

`CC(C)[C@H]1CC2CC3c4[nH]c5ccccc5c4CCN(C2)C31` (stereo partly drawn) [7h]: the Ki on MOR is 3130 nM; at M4, 416 nM; at M3 it was 414 nM; on SERT, 709 nM; at KOR, 995 nM; on DAT it was 2020 nM. Moreover, the Ki on M5 came out at 1100 nM.

Regarding `CCC1CC2CC3c4c(c5ccccc5n4CC=C(C)C)CCN(C2)C13` (stereo not drawn) [compound 23], the Ki on MOR worked out at 6440 nM; on D3, 249 nM; on D2, 2420 nM; at H1, 1710 nM.

For the compound `CCC1CC2CC3c4[nH]c5cc6c(cc5c4CCN(C2)C13)OCO6` (stereo not drawn) [7f], the Ki was greater than 10000 nM at 5-HT1D and 5410 nM at H3.

As to `CCC1CC2CC3c4[nH]c5cc(Cl)ccc5c4CCN(C2)C13` (stereo not drawn) [7b], the Ki on MOR was found to be 4450 nM; on Alpha2A it was 1720 nM; at Alpha2B it was 2360 nM; at 5-HT2A, 3000 nM; at Alpha2C it was 1360 nM; on M3, 811 nM. Moreover, the Ki on 5-HT3 is 1010 nM; at SERT, 177 nM; on NET it was 1790 nM; at M2, 2940 nM; at KOR, 1400 nM; at H3, 2880 nM.

The compound `CCC1C[C@H]2CC3c4[nH]c5ccccc5c4CCN(C2=O)C13` (stereo in doubt) [compound 22] registered a Ki at SERT of 1380 nM.

On to `c1ccc2c3c([nH]c2c1)C1CC2C[C@H](C4CCOCC4)C1N(CC3)C2` (stereo partly drawn) [7i], for which the Ki was found to be 1810 nM at MOR; 37.9 nM on M4; 138 nM on M1; 73.7 nM on M3; 1710 nM at SERT; 150 nM on M2. The Ki is 882 nM at H1 and 224 nM on M5.

In the case of `CC[C@H]1C[C@@H]2C[C@H]3c4[nH]c5cc(OC)ccc5c4CC[N@@](C2)[C@@H]13` [tabernanthine (3), tabernanthine, reference compound], the Ki at S2R was 194 nM; on 5-HT1D, 7660 nM; at SERT, 1300 nM; at KOR, 319 nM; on H3 it was 2300 nM.
